{"source": "patent US20130023553A1", "about": "“PEGYLATED OPIOIDS WITH LOW POTENTIAL FOR ABUSE AND SIDE EFFECTS” (Nektar Therapeutics, priority 2010, published 2013)", "key": {"[1]": {"test": "Pharmacokinetics following intravenous (IV) dosing", "format": "in vivo, Sprague-Dawley rats", "settings": "male, Sprague-Dawley, rat, plasma, hydroxycodone series, 1 mg/kg IV, Mean ± SD", "from_the_text": "(§1) There were 3 rats/group. All animals were food fasted overnight. […] The predose sample was collected from the JVC.\n(§2) Following the last collection point, the animals were euthanized."}, "[2]": {"test_system": "squirrel monkeys", "test": "Monkey self-administration model of addictive potential"}, "[3]": {"test_system": "mice", "test": "Oral dose giving maximal analgesia", "format": "in vivo"}, "[4]": {"test_system": "Sprague-Dawley rats", "test": "Abuse liability: three-day substitution test in rats trained to self-administer cocaine", "settings": "i.v. self-administration"}, "[5]": {"target": "T1, human mu opioid receptor (Homo sapiens, UniProt P35372)", "T1 construct": "expressed in transfected cells; host or cells: CHO cells", "T1 sequence (P35372 whole entry)": "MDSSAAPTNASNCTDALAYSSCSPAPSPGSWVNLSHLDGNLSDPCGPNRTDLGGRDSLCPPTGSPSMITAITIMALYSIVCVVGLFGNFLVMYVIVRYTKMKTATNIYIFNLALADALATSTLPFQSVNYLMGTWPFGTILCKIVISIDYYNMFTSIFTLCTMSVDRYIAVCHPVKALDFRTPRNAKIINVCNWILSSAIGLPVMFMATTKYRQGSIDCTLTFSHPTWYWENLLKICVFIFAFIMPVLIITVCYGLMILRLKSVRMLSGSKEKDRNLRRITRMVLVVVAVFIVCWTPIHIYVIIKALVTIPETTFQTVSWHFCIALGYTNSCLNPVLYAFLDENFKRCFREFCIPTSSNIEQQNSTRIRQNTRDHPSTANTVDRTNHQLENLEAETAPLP", "test": "biochemical", "format": "binding", "settings": "CHO-K1 membranes, [3H]DAMGO 6 nM; read-out: Ki, Mu opioid receptor"}, "[6]": {"test": "Pharmacokinetics following oral (PO) dosing", "format": "in vivo, Sprague-Dawley rats", "settings": "male, Sprague-Dawley, rat, plasma", "from_the_text": "as §1, §2"}, "[7]": {"test_system": "male (CD1) mice", "test": "Respiratory depression, whole body plethysmography with CO2 challenge", "settings": "equianalgesic doses (100 mg/kg vs oxycodone 30 mg/kg, gavage)", "method": "The animals were housed in SPF conditions. The animal housing facilities were maintained at 72°+/−2° F. with a light cycle of 12:12 hours (light:dark). Autoclaved rodent chow and water are provided ad libitum.\nApproximate measurements of minute ventilation were carried out using Buxco unrestrained whole body plethysmographs (WBP). Digital computer aided analysis of the analog signal was used to report measurements of tidal volume, frequency of breathing, minute ventilation, inspiratory and expiratory times and flows as well as other derived measurements.\nTo more clearly delineate the effect of these test articles on respiratory depression, a hypercapnic ventilatory stimulus (CO2) was added to the animals' breathing air supply to stimulate ventilation.\nMice received the drug by gavage and then were placed in the WBP. […] The mouse remained in that atmosphere for 10 minutes, after which time the chamber was flushed with zero grade air for another 20 min to allow ventilation to return to baseline. The mouse was challenged again with 8% CO2 for 10 minutes. […] The last 2 minutes of each of the two conditions (Air or 8% CO2) was recorded and analyzed for the following respiratory parameters: minute ventilation, respiratory frequency, tidal volume, and time of inspiration/expiration for animals in each dose group."}, "[8]": {"settings": "listed as mPEG6-O-hydroxycodone"}, "[9]": {"settings": "hydroxycodone series, 5.0 mg/kg oral, Mean ± SD"}}, "note": "Entries after “also recorded” stand apart in the source; their conditions may differ."}
{"smiles": "COCCOCCOCCOCCOCCOCCOC1CCC2(O)C3Cc4ccc(OC)c5c4C2(CCN3C)C1O5", "note": "(stereo not drawn) [α-6-mPEG6-O-hydroxycodone, α-6-mPEG6-O-oxycodone]", "values": [{"measurement": "AUC", "setting": "[1]", "value": 210, "unit": "ng·h/mL"}, {"measurement": "AUC(0-inf)", "setting": "[1]", "value": 218, "unit": "ng·h/mL"}, {"measurement": "MRT last", "setting": "[1]", "value": 0.795, "unit": "h"}, {"measurement": "clearance", "setting": "[1]", "value": "77.9 ± 14.4", "unit": "mL/min/kg"}, {"measurement": "Cmax", "setting": "[1]; read-out: Cmax", "value": "445 ± 83.6", "unit": "ng/mL"}, {"measurement": "half-life", "setting": "[1]; read-out: T1/2(z)", "value": "1.04 ± 0.0862", "unit": "h"}, {"measurement": "Vd", "setting": "[1]; read-out: Vss", "value": "4.68 ± 0.938", "unit": "L/kg"}, {"measurement": "injection lever responses (% ILR)", "setting": "[2]; 0.03 mg/kg/injection", "value": "only food lever responses"}, {"measurement": "injection lever responses (% ILR)", "setting": "[2]; 1 mg/kg/injection", "value": 39, "unit": "%"}, {"measurement": "subjects showing addictive behavior", "setting": "[2]; 1 mg/kg/injection", "value": 25, "unit": "%"}, {"measurement": "injection lever responses (% ILR)", "setting": "[2]; 1 mg/kg/injection, listed as α-mPEG-6-O-hydroxycodone", "value": "38±24", "unit": "%"}, {"measurement": "subjects showing addictive behavior", "setting": "[2]; 3 mg/kg/injection", "value": 50, "unit": "%"}, {"measurement": "oral dose at which maximal analgesia was obtained", "setting": "[3]", "value": 100, "unit": "mg/kg"}, {"measurement": "reinforcing behavior, three-day substitution", "setting": "[4]", "value": "no reinforcing behavior was observed; also recorded: lack of reinforcing behavior"}, {"measurement": "reinforcing behavior, three-day substitution", "setting": "[4]; [8]", "value": "no behavioral evidence of positive reinforcement"}, {"measurement": "Ki", "setting": "[5]", "value": 1900, "unit": "nM"}, {"measurement": "bioavailability", "setting": "[6]; po, 5 mg/kg", "value": 55.3, "unit": "%"}, {"measurement": "AUC", "setting": "[6]; [9]", "value": 585, "unit": "ng·h/mL"}, {"measurement": "MRT last", "setting": "[6]; [9]", "value": 2.57, "unit": "h"}, {"measurement": "AUC(0-inf)", "setting": "[6]; hydroxycodone series, 5.0 mg/kg oral, Mean ± SD, * n = 2", "value": 603, "unit": "ng·h/mL"}, {"measurement": "half-life", "setting": "[6]; hydroxycodone series, 5.0 mg/kg oral, Mean ± SD, * n = 2, read-out: T1/2(z)", "value": "1.42 ± 0.131", "unit": "h"}, {"measurement": "Cmax", "setting": "[6]; hydroxycodone series, 5.0 mg/kg oral, Mean ± SD, read-out: Cmax", "value": "171 ± 76.6", "unit": "ng/mL"}, {"measurement": "Tmax", "setting": "[6]; hydroxycodone series, 5.0 mg/kg oral, median value, read-out: Tmax (converted)", "value": 2, "unit": "h"}, {"measurement": "respiratory depression compared to oxycodone", "setting": "[7]; listed as PEG-6-O-hydroxycodone", "value": "produces less respiratory depression than oxycodone"}, {"measurement": "respiratory depression compared to oxycodone", "setting": "[7]; [8]", "value": "less respiratory depression"}]}
